Source: BindingDB's records for doi:10.1021/jm050513m (The University of Texas At Houston, 2005)
pIC50: −log10 of the molar value. Square brackets hold non-standard residues; d marks the D form. Peptide text beside a SMILES is read from it. ξ: configuration not given here. pY = N[C@@H](Cc1ccc(OP(=O)(O)O)cc1)C(=O)O; Thr(3ξ) = CC(O)[C@H](N)C(=O)O; αMeP = C[C@@]1(C(=O)O)CCCN1; Nle = CCCC[C@H](N)C(=O)O

Target: Signal transducer and activator of transcription 3 (Mus musculus, UniProt P42227)
Assay: Fluorescence Polarization Assay
Settings: pH 7.5; 22 °C
Protocol: Fluorescence polarization (FP) binding assay is utilizing the intrinsic property of the fluorescent probe, which will have low polarization value when free in solution. On binding to a target, the polarization of the probe will increase. Reaction mixtures of full length STAT3 alpha and the probe were placed in wells of a 96-well microtiter plate. The test peptide solution was added to each well. Fluorescence polarization was then read in a Tecan Polarian plate reader. The IC50 values were obtained from nonlinear regression analysis in the one-site competition mode. Peptides were assayed three times using three separate Stat3-probe preparations. IC50 values are reported as the mean of three IC50 values +/- the standard deviation.

Sequence of Signal transducer and activator of transcription 3 (P42227 whole entry): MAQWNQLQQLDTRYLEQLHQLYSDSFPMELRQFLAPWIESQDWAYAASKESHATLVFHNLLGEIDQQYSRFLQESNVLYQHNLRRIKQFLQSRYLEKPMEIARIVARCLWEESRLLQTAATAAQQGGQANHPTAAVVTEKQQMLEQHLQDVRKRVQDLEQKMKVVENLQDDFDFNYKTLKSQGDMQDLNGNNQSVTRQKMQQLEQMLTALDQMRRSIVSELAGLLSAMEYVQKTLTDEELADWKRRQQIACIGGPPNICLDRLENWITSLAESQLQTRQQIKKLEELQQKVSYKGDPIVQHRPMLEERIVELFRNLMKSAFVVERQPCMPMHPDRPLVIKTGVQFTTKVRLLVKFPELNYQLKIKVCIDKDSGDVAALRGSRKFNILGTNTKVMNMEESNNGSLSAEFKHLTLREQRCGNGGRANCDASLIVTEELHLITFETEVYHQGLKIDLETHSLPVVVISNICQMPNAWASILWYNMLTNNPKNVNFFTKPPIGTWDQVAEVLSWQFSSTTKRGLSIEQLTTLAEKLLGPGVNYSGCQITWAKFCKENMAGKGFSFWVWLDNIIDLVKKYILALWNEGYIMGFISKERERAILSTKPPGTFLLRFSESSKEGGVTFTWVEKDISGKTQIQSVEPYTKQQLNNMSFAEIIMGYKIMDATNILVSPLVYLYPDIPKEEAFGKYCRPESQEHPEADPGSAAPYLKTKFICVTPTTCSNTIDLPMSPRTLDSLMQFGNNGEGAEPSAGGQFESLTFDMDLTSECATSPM

| pIC50 | SMILES |
| --- | --- |
| 5.73 | CC(=O)N[C@@H](Cc1ccc(OP(=O)(O)O)cc1)C(=O)N[C@@H](CC(C)C)C(=O)N1CCC[C@@]1(C)C(=O)N[C@@H](CCC(N)=O)C(=O)N[C@H](C(N)=O)C(C)O (stereo partly drawn) [4-[(2S)-2-{[(2S)-1-[(2S)-2-{[(1S)-3-carbamoyl-1-{[(1S,2S)-1-carbamoyl-2-hydroxypropyl]carbamoyl}propyl]carbamoyl}-2-methylpyrrolidin-1-yl]-4-methyl-1-oxopentan-2-yl]carbamoyl}-2-acetamidoethyl]phenoxyphosphonic acid] (Ac-[pY]L[αMeP]Q[Thr(3ξ)]-NH2) |
| 4.74 | CNC(=O)CC[C@H](NC(=O)[C@@H]1CCCN1C(=O)[C@H](CC(C)C)NC(=O)[C@H](Cc1ccc(OP(=O)(O)O)cc1)NC(C)=O)C(=O)N[C@H](C(N)=O)C(C)O (stereo partly drawn) [4-[(2S)-2-{[(2S)-1-[(2S)-2-{[(1S)-1-{[(1S,2S)-1-carbamoyl-2-hydroxypropyl]carbamoyl}-3-(methylcarbamoyl)propyl]carbamoyl}pyrrolidin-1-yl]-4-methyl-1-oxopentan-2-yl]carbamoyl}-2-acetamidoethyl]phenoxyphosphonic acid] (Ac-[pY]LPE(NHMe)[Thr(3ξ)]-NH2) |

| SMILES | pIC50 |
| --- | --- |
| CCCC[C@H](NC(=O)[C@H](Cc1ccc(OP(=O)(O)O)cc1)NC(C)=O)C(=O)N1CCC[C@H]1C(=O)N[C@@H](CCC(N)=O)C(=O)N[C@H](C(N)=O)C(C)O (stereo partly drawn) [4-[(2S)-2-{[(2S)-1-[(2S)-2-{[(1S)-3-carbamoyl-1-{[(1S,2S)-1-carbamoyl-2-hydroxypropyl]carbamoyl}propyl]carbamoyl}pyrrolidin-1-yl]-1-oxohexan-2-yl]carbamoyl}-2-acetamidoethyl]phenoxyphosphonic acid] (Ac-[pY][Nle]PQ[Thr(3ξ)]-NH2) | 6.14 |
